Like-named read-outs stand apart in the source and are kept apart here. Blank lines part the entries; values can stand above or below the compound they belong to.
Key:
human PWS fibroblasts [1] = assay: Chromatin accessibility assay; assay type: cell-based; conditions: vs vehicle-treated controls
Experimental: Chromatin accessibility assay was performed to investigate whether G9a inhibitors change open/close state of the imprinted cluster in the PWS-IC region according to Pai, C.C., et al. Nature communications 5, 4091 (2014) with slight modifications. Briefly, 3 days after drug treatment in human PWS fibroblasts, the cells were harvested and lysed with lysis buffer (0.5% NP-40, 15 mM Tris-HCl [pH 7.4], 0.15 mM Spermidine, 0.5 mM Spermine, 15 mM NaCl, 60 mM KCl, 1 mM DTT, 0.1 mM PMSF, 0.5M Sucrose, Protease and Phosphatase inhibitor cocktail (Roche)). The lysed cells were collected by centrifugation (3000 RPM/10 min/4° C.) and rinsed with digestive buffer (15 mM Tris-HCl [pH 7.4], 15 mM NaCl, 60 mM KCl, 4 mM MgCl2, 1 mM DTT, 0.1 mM PMSF, 0.35M Sucrose). After rinsing the cell pellets, MNase (NEB) was added to digest open status of chromatins, followed by genomic qPCR to determine changes in amount of SNRPN and other imprinted genes.

human PWS fibroblasts [2] = assay: RT-PCR of 15q11-q13 genes in human PWS fibroblasts; assay type: cell-based; conditions: for SNORD116 and its putative host transcript (116HG): 4 μM, 72 hours
Experimental: For testing long lasting drug effects, the 6 week-old m^S-EGFP/p^+ mice were treated daily by i.p. injection for seven consecutive days.
For reverse-transcription PCR (RT-PCR) and quantitative real time RT-PCR (qRT-PCR), first total RNA was extracted from the fibroblasts and/or collected tissues (liver and brain) using Direct-zol RNA Miniprep kit (Zymo Research cat. no. R2070). 2 μg of total RNA was directly used for single strand cDNA synthesis with Superscript III reverse transcriptase (Invitrogen cat. no. 18080-093) according to the manufacturer's protocols. The conditions for RT-PCR were 95° C./5 min, 35-40 cycles of 95° C./30 sec, 56-60° C./60 sec, 72° C./60 sec. Quantification of target gene expression was performed in a LightCycler480 instrument (Roche) using SsoAdvanced Universal SYBR green Supermix (Biorad cat. no. 172-5271) according to the manufacturer's instructions. See Table 4 for primer sequences and conditions used for experiments for RT-PCR, qRT-PCR, bisulfite genomic sequencing, ChIP-qPCR, and chromatin accessibility assay.
FIG. 4a represents a schematic of genomic organization at the human chromosome 15q11-q13 region imprinting center. Because imprinting of SNPRN is known to be ubiquitous, the G9a-inhibitor effect on its activation is expected to be representative of all tissues and cell types.

maternal Snrpn-EGFP MEFs = assay: High content screening / concentration response of Snrpn-EGFP unsilencing; assay type: cell-based, mouse; conditions: for activation of S-EGFP: mS-EGFP/p+ MEFs; for EC50: read-out: half-maximal effective concentration (EC50), Snrpn-EGFP unsilencing
Experimental: High content screenings of small molecules were performed as described in Huang, et al. Nature 481, 185-189 (2012). HCS comprises a 384-well high-content screen using primary mouse embryonic fibroblasts (MEFs) from m^S-EGFP/p^+, and searched for drug-like molecules that could unsilence the maternal S-EFGP allele. […] To perform the screen, primary MEFs were isolated from E12.5-14.5 embryos of m^S-EGFP/p^+ and cultured for 7 days in Dulbecco's modified Eagle's media supplemented with 10% fetal bovine serum, 100 Units/mL penicillin and 100 μg/mL streptomycin, at 37° C. and 5% CO2. One day before treatment with small molecules, 5,000 cells per well were plated onto 384-well plates. The cells were then treated with compounds (10 μM for 72 hours) from multiple small molecule libraries (FIG. 1f and FIG. 2). In total, 9,157 small molecules were screened in quadruplicate, normalizing values to vehicle-treatment (0.2% DMSO) (Table 1). The unsilencing of Snrpn-EGFP was determined three days after drug treatment. The immunofluorescence-processed fibroblasts were imaged for Hoechst and Alexa Fluor 488 fluorescence using a BD Pathway 855 high content imaging microscope. Antibody-enhanced Snrpn-EGPF fluorescence intensity was determined in drug-treated cells individually and normalized to cells treated with vehicle control. In order to identify potentially active compounds, an arbitrary cutoff of 125% was used where 100% indicates basal fluorescence in the vehicle-treated MEFs. Analysis was performed using Cell Profiler with custom macro and algorithms. Potential active drugs were defined as the increase in drug-mediated EGFP fluorescence consistently observed across quadruplicate wells and minimal or no cytotoxicity measured by Hoechst-stained nuclear structure (and the changes in total number of cells). After initial validation of all potential active drugs (e.g., to determine whether active compounds show inherent fluorescence, the wild-type fibroblasts were also treated), only effective hit compounds further validated in dose-response tests to determine relative efficacy (Emax) and potency (EC50). The dose-response results were analyzed by using Graphpad Prism (Graphpad Software). The calculated EC50 values (potencies) and estimated Emax (efficacy, Y-value top plateau) enabled comparative analyses of the relative potency and efficacy of the identified compounds.
Three days after drug treatment, the cells were fixed at 4% paraformaldehyde at room temperature for 10 min, followed by rinsing with 1× PBS. The cells were permeabilized with 0.5% Triton X-100 in 1× PBS at room temperature for 10 min, followed by blocking with 5% normal goat serum in 0.1% Triton X-100 in 1× PBS at room temperature for 30 minutes. Primary rabbit anti-GFP antibody (1:1000, Novus Biologicals cat. no. NB100-1770) was incubated at 4° C. overnight. The next day, the cells were rinsed with 1× PBS and incubated with goat anti-rabbit Alexa Fluor 488 (Invitrogen cat. no. A-11008) and Hoechst at room temperature. One hour after incubation, the cells were rinsed with 1× PBS and imaged for Hoechst and Alexa Fluor 488 fluorescence using a BD Pathway 855 high content imaging microscope.
It is not feasible to design a screen for noncoding RNA. Alternatively, SNRPN/Snprn is paternally expressed but maternally silenced in all human and mouse tissues. The allele-specific expression of human SNRPN is regulated by the PWS-IC, which also controls the expression of host transcripts for SnoRNAs, including the SNORD116 cluster between SNRPN and UBE3A. see Le Meur, E. et al., Dev. Biol. 286, 587-600 (2005). Thus, the Snrpn-EGFP fusion protein (hereafter S-EGFP) was used as a marker for high content screening (HCS). It was determined that small molecules that can unsilence S-EGFP would also be effective in reactivating the host transcript of SNORD116. […]

H3K9me2 = conditions: cited from earlier work
m+/pΔS-U mice = assay: Survival and growth in PWS mouse model; assay type: in vivo; conditions: between P10 and P19, treated m+/pΔS-U pups
Experimental: The dosage and duration vary depending on the age and condition of animals.
The m/p^ΔS-U pups were treated between postnatal day 7 (P7) and P12, as most m^+/p^ΔS-U pups died before weaning. For neonatal PWS mice, a lower dose regimen of 2.5 mg/kg i.p. injections for 5 consecutive days was used. […] Pups at postnatal day 7 (P7) were treated with a daily dose of 2.5 mg/kg for 5 days.

[3] = in vivo; cited from earlier work

EC50 (maternal Snrpn-EGFP MEFs; maternal Snrpn-EGFP MEFs, 72 hours): 1600 nM
Structure (SMILES): COc1cc2c(NC3CCN(C(C)C)CC3)nc(C3CCCCC3)nc2cc1OCCCN1CCCC1 [UNC0638]
chromatin accessibility across the imprinted domains incl. SNRPN and SNORD116 (human PWS fibroblasts [1]): more open and accessible
SNORD116 and its putative host transcript (116HG) (human PWS fibroblasts [2]): effective
activation of SNRPN and SNORD116 transcripts (human PWS fibroblasts [2]; 1-4 μM): effectively activated
activation of S-EGFP (maternal Snrpn-EGFP MEFs): active
reduction of the levels of H3K9me2 (H3K9me2; 250 nM, variety of cell lines): 60-80%

Structure (SMILES): COc1cc2c(NC3CCN(C(C)C)CC3)nc(N3CCC(F)(F)CC3)nc2cc1OCCCN1CCCC1 [UNC0642]
SNORD116 and its putative host transcript (116HG) (human PWS fibroblasts [2]): effective
growth (body weight) (m+/pΔS-U mice): significant improvement of growth
pharmacokinetic properties such as central nervous system penetration [3]: superior to UNC0638
EC50 (maternal Snrpn-EGFP MEFs; Mus musculus, 72 h): 2700 nM
activation of S-EGFP (maternal Snrpn-EGFP MEFs): active
potency for H3K9me2 mark (H3K9me2; several cell lines): high potency
